Measurements as given in US11472845B2, “Antitumor peptide and use thereof” (TOAGOSEI CO., LTD., priority 2019, dated 2022).
Like-named read-outs stand apart in the source and are kept apart here. Ends that are not written are not given here.

Assays:
[1] = system: human gastric cancer cell lines (FU97); format: cell-based; settings: for Cell viability (%) of test cells: human, 48 h
Description: (§1) The antitumor activity of Sample 1 synthesized in the above Test Example 1 with respect to human-derived cultured tumor cells was evaluated. Currently commercially available human gastric cancer cell lines (FU97), human alveolar basal epithelial adenocarcinoma cell lines (A549), human breast cancer cell lines (MDA-MB-231), and human melanoma cell lines (A375) were prepared as test tumor cells. In addition, normal human mammary epithelial cell culture lines (MCF-12F) were prepared for comparison. A DMEM culture medium including 10 μg/mL of insulin, 50 unit/mL of penicillin, 50 μg/mL of streptomycin, and 10% fetal bovine serum (FBS) (product, commercially available from Wako Pure Chemical Industries, Ltd.) The above five types of cell lines were cultured in respective designated culture solutions. The cell lines were cultured so that the number of cells per well in a 96-hole (well) plate was about 5×10^3. Here, an amount of the culture solution per well was 100 μL. The 96-well plate was then placed in a CO2 incubator. Then, pre-incubation was performed under conditions of 37° C. and 5% CO2 for about 1 day (about 23 hours). Then, regarding the culture solution for the peptide addition area, culture solutions containing Sample 1 for each concentration were prepared so that the concentration of Sample 1 was 6.25 μM, 12.5 μM or 25 μM and supplied to wells (that is, wells after the pre-incubation) in which 90 μL of cells to be evaluated were cultured in each well. On the other hand, regarding the culture solution for the comparative test area, a culture solution to which no Sample 1 was added was prepared, and supplied to wells (that is, wells after the pre-incubation) in which 90 μL of cells to be evaluated were cultured in each well. The 96-well plate was then placed in a CO2 incubator, and incubated under conditions of 37° C. and 5% CO2 for 48 hours. […] Then, the absorbance at a wavelength of 450 nm (value corrected by the absorbance at a wavelength of 620 nm: A450-A620) was measured based on the reduction of the tetrazolium salt in the culture solution. Then, the cell viability was calculated according to a colorimetric method. In the test areas (test areas 1 to 3) in the peptide addition area, the cell viability of each of the above five types of cell lines was calculated as a relative value when a measured value (measurement absorbance) of the comparative test area in the same cell lines was set as 100%. That is, regarding each of the above five types of cell lines, the cell viability (%) was calculated by dividing the measurement absorbance of the test areas (test areas 1 to 3) in the peptide addition area by the measurement absorbance of the comparative test area in the same cell lines and multiplying by 100.

[2] = system: human alveolar basal epithelial adenocarcinoma cell lines (A549); format: cell-based; settings: for Cell viability (%) of test cells: human, 48 h
Description: as §1, with “comparison. An RPMI-1640” for “comparison. A DMEM”, “including 2 mM of L-glutamine, 1 mM of sodium pyruvate,” for “including”, “10 mM” for “10 μg/mL”, “of HEPES, […] of glucose,” for “of insulin,”, “10% FBS” for “10% fetal bovine serum (FBS)”, “Industries, Ltd.).” for “Industries, Ltd.)”

## MACLGFQRHKAQLNLATRTWPCTLLFFLLFIPVFCKKRTLRKTDRKKR-NH2 (cysteines drawn unpaired) [Sample 1]
[1]; FU97, 12.5 μM Sample 1, (cell viability of test tumor cells)/(cell viability of MCF-12F cells)×100
  Specific cell viability of test tumor cells: 23.0
[1]; 6.25 μM
  Cell viability (%) of test cells: 29.4%
[1]; 12.5 μM
  Cell viability (%) of test cells: 26.3%
[1]; 25 μM
  Cell viability (%) of test cells: 30%
[2]; A549, 12.5 μM Sample 1, (cell viability of test tumor cells)/(cell viability of MCF-12F cells)×100
  Specific cell viability of test tumor cells: 36.0
[2]; 6.25 μM
  Cell viability (%) of test cells: 64.7%
[2]; 12.5 μM
  Cell viability (%) of test cells: 41.1%
[2]; 25 μM
  Cell viability (%) of test cells: 24.9%
